Reference: ChEMBL document CHEMBL5303304, “EUbOPEN Chemogenomics Library - IncuCyte” (2023)

Assays:
Assay type in all cases: toxicity, cell-based
[1] = system: HEK-293T; assay: Incucyte cell viability with HEK293T; conditions: human, 10 µM, compound concentration 10 uM
[2] = system: Fibroblast; assay: Incucyte cell viability with human fibroblast; conditions: 10 µM, compound concentration 10 uM
[3] = system: U2OS; assay: Incucyte cell viability with U2OS; conditions: human, 10 µM, compound concentration 10 uM
Note: unitless GR value; below 1 slowed growth and below 0 cell loss.

Structure (SMILES) | Growth Rate ([1]; 0 h, replicate number 1) | Growth Rate ([1]; 6 h, replicate number 1) | Growth Rate ([1]; 6 h, replicate number 2) | Growth Rate ([1]; 12 h, replicate number 1) | Growth Rate ([1]; 12 h, replicate number 2) | Growth Rate ([1]; 18 h, replicate number 1) | Growth Rate ([1]; 18 h, replicate number 2) | Growth Rate ([1]; 24 h, replicate number 1) | Growth Rate ([1]; 24 h, replicate number 2) | Growth Rate ([2]; 6 h, replicate number 2) | Growth Rate ([2]; 12 h, replicate number 1) | Growth Rate ([2]; 12 h, replicate number 2) | Growth Rate ([2]; 18 h, replicate number 2) | Growth Rate ([2]; 24 h, replicate number 2) | Growth Rate ([3]; 0 h, replicate number 1) | Growth Rate ([3]; 12 h, replicate number 1) | Growth Rate ([2]; 6 h, replicate number 1) | Growth Rate ([3]; 6 h, replicate number 1) | Growth Rate ([3]; 18 h, replicate number 2) | Growth Rate ([3]; 24 h, replicate number 1) | also measured
N#CN1CC[C@@H](C(=O)Nc2nc3c(s2)CN(C(=O)CN=[N+]=[N-])CC3)C1 [JYQ88] | 0.97 | 0.69 | 0.71 | 0.77 | 0.7 | 1 | 0.77 | 0.96 | 0.85 | 0.78 | 0.78 | 0.49 | 0.75 | 0.77 | -1 | 0.95 | – | – | – | – | Growth Rate ([2]; 0 h, replicate number 1): -1; Growth Rate ([2]; 24 h, replicate number 1): 1
C=C(C)[C@H]1CN[C@H](C(=O)O)[C@H]1CC(=O)O [KAINIC ACID] | – | 0.6 | – | 0.52 | – | 0.62 | 0.99 | 0.8 | – | 0.16 | – | 0.83 | 0.79 | 0.8 | – | – | 0.61 | 0.42 | 0.9 | 0.98 | Growth Rate ([2]; 0 h, replicate number 1): -0.12; Growth Rate ([2]; 0 h, replicate number 2): 0.92; Growth Rate ([2]; 18 h, replicate number 1): 0.63; Growth Rate ([2]; 24 h, replicate number 1): 0.76; Growth Rate ([3]; 0 h, replicate number 2): -0.65
CC(=O)N1CCN(c2ccc(OCC3COC(Cn4ccnc4)(c4ccc(Cl)cc4Cl)O3)cc2)CC1 (stereo unspecified) [KETOCONAZOLE] | – | -0.34 | -0.16 | 0.05 | 0.03 | 0.34 | 0.32 | 0.6 | 0.38 | – | -1 | – | 0.96 | 0.89 | – | – | 0.47 | 0.7 | 0.99 | – | Growth Rate ([2]; 0 h, replicate number 2): -0.79; Growth Rate ([3]; 0 h, replicate number 2): -0.98; Growth Rate ([3]; 6 h, replicate number 2): 0.94; Growth Rate ([3]; 12 h, replicate number 2): 0.63
Cc1c[nH]c(-c2cnc(NCCNc3ccc(C#N)cn3)nc2-c2ccc(Cl)cc2Cl)n1 [LADUVIGLUSIB] | 0.82 | 0.35 | 0.14 | 0.49 | 0.43 | 0.58 | 0.7 | 0.71 | 0.75 | 0.81 | -0.47 | -0.19 | -0.3 | -0.28 | 0.54 | 0.48 | 0.56 | 0.47 | 0.93 | 0.56 | Growth Rate ([1]; 0 h, replicate number 2): 0.92; Growth Rate ([2]; 18 h, replicate number 1): -0.4; Growth Rate ([2]; 24 h, replicate number 1): -0.33; Growth Rate ([3]; 12 h, replicate number 2): 0.87; Growth Rate ([3]; 18 h, replicate number 1): 0.83; Growth Rate ([3]; 24 h, replicate number 2): 0.99
O=C(O)CCCc1cc2cc(Cl)ccc2n1S(=O)(=O)c1ccc2ncsc2c1 [LANIFIBRANOR] | 0.87 | 0.78 | 0.49 | – | 0.73 | – | 0.59 | – | 0.63 | 0.28 | – | 0.76 | – | – | – | 0.94 | 0.58 | – | – | – | Growth Rate ([1]; 0 h, replicate number 2): -0.8; Growth Rate ([2]; 0 h, replicate number 2): 0.65
CS(=O)(=O)CCNCc1ccc(-c2ccc3ncnc(Nc4ccc(OCc5cccc(F)c5)c(Cl)c4)c3c2)o1 [LAPATINIB] | 0.86 | – | 0.95 | – | 0.94 | – | 0.95 | – | 0.87 | 0.69 | – | 0.65 | 0.7 | – | 0.96 | 0.78 | -0.42 | 0.66 | 0.99 | 0.9 | Growth Rate ([2]; 0 h, replicate number 1): 0.88; Growth Rate ([3]; 6 h, replicate number 2): 0.93; Growth Rate ([3]; 12 h, replicate number 2): 0.92; Growth Rate ([3]; 18 h, replicate number 1): 0.86; Growth Rate ([3]; 24 h, replicate number 2): 0.98
C=CC(=O)Nc1cc(Nc2nccc(-n3cc(CN(C)C)c(-c4ccccc4)n3)n2)c(OC)cc1N1CCOCC1 [LAZERTINIB] | – | 0.45 | – | – | – | – | – | – | – | -0.96 | -1 | 0.67 | – | 0.86 | – | 0.19 | 0.27 | -0.48 | 0.96 | 0.78 | Growth Rate ([1]; 0 h, replicate number 2): 0.8; Growth Rate ([3]; 0 h, replicate number 2): -0.99; Growth Rate ([3]; 6 h, replicate number 2): 0.77; Growth Rate ([3]; 12 h, replicate number 2): 0.92; Growth Rate ([3]; 18 h, replicate number 1): 0.4; Growth Rate ([3]; 24 h, replicate number 2): 0.91
CN[C@@H](C)C(=O)N[C@H](C(=O)N1CCC[C@H]1c1nc(C(=O)c2ccc(F)cc2)cs1)C1CCCCC1 [LCL-161] | – | 0.22 | 0.84 | 0.4 | 0.95 | 0.53 | – | 0.84 | – | 0.19 | – | – | 0.88 | 0.85 | -0.08 | 0.96 | – | 0.45 | – | – | Growth Rate ([1]; 0 h, replicate number 2): -0.96; Growth Rate ([3]; 18 h, replicate number 1): 0.91
